What all share (format): functional
Experiment [1] has as its system Staphylococcus epidermidis. Description: Tested for zone of inhibition against Staphylococcus epidermidis UC719 (1 mg/mL, 80 microL/6.5 mm).
Experiment [2] relates to Staphylococcus aureus. Description: Tested for zone of inhibition against Staphylococcus aureus UC3665 (1 mg/mL, 80 microL/12.7 mm).
Experiment [3] deals with Staphylococcus aureus. Description: The compound (1 mg/mL, 80 microL/6.5 mm) was tested for zone of inhibition against Staphylococcus aureus UC6685 (38H -, H: Hazy zone).
Experiment [4] deals with Clostridium perfringens. Description: Tested for zone of inhibition against Clostridium perfringens UC6509.
Another experiment deals with Cutibacterium acnes. Nature of the experiment: Tested in vitro for its antibacterial activity against Propionibacterium acnes UC6564.
A further experiment concerns Fusobacterium nucleatum. Description: Tested in vitro for its antibacterial activity against Fusobacterium nucleatum UC6324.
The next experiment relates to Streptococcus pyogenes. Description: Tsted in vitro for its antibacterial activity against Streptococcus pyogenes UC152.
In experiment [5] the test system is Bacteroides fragilis. Description: The compound was tested in vitro for its antibacterial activity against Bacteroides fragilis UC9370.
Experiment [6] deals with Bacteroides thetaiotaomicron. Description: The compound (1 mg/mL, 80 microL/6.5 mm) was tested for zone of inhibition against Bacteroides thetaiotaomicron UC 6360.
For experiment [7], the system named is Prevotella melaninogenica. Nature of the experiment: Tested in vitro for its antibacterial activity against Bacteroides melaninogenicus UC 6523.
In experiment [8] the test system is Bacteroides fragilis. Description: Tested for zone of inhibition against Bacteroides fragilis UC6513 (1 mg/mL, 80 microL/12.7 mm).
The subject of experiment [9] is Staphylococcus aureus. Description: Tested for zone of inhibition against Staphylococcus aureus UC6685 (1 mg/mL, 80 microL/6.5 mm).
Experiment [10] concerns Bacteroides thetaiotaomicron. Nature of the experiment: The compound was tested in vitro for its antibacterial activity against Bacteroides thetaiotaomicron UC 6360.
Experiment [11] concerns Clostridium perfringens. Nature of the experiment: Tested in vitro for its antibacterial activity against Clostridium perfringens UC6509.
Experiment [12] in a line: Tested in vitro for its antibacterial activity against Peptococcus variabilis UC6320.
The subject of experiment [13] is Parabacteroides distasonis. Nature of the experiment: Tested in vitro for its antibacterial activity against Bacteroides distasonis UC6518.
The next experiment relates to Escherichia coli. Nature of the experiment: Tested in vitro for its antibacterial activity against Escherichia coli UC9379.
The test system of experiment [14] is Staphylococcus epidermidis. Description: The compound (1 mg/mL, 80 microL/6.5 mm) was tested for zone of inhibition against Staphylococcus epidermidis UC719 (14H -, H: Hazy zone).
In experiment [15] the test system is Staphylococcus aureus. Nature of the experiment: The compound (1 mg/mL, 80 microL/6.5 mm) was tested for zone of inhibition against Staphylococcus aureus UC6685 (20H -, H: Hazy zone).
The test system of experiment [16] is Clostridium perfringens. Description: The compound (1 mg/mL, 80 microL/12.7 mm) was tested for zone of inhibition against Clostridium perfringens UC6509 (22H -, H: Hazy zone).
The test system of experiment [17] is Clostridium perfringens. Nature of the experiment: The compound (1 mg/mL, 80 microL/12.7 mm) was tested for zone of inhibition against Clostridium perfringens UC6509.
Experiment [18] has as its system Bacteroides thetaiotaomicron. Nature of the experiment: Tested in vitro for its antibacterial activity against Bacteroides thetaiotaomicron UC 9014[clindamycin 2 micro g/mL].
Experiment [19] has as its system Staphylococcus epidermidis. Nature of the experiment: The compound (1 mg/mL, 80 microL/6.5 mm) was tested for zone of inhibition against Staphylococcus epidermidis UC719 (20H -, H: Hazy zone).
Experiment [20] deals with Bacteroides fragilis. Nature of the experiment: Tested in vitro for its antibacterial activity against Bacteroides fragilis UC9370 [clindamycin 1 micro g/mL].
Experiment [21] has as its system Staphylococcus aureus. Nature of the experiment: The compound (1 mg/mL, 80 microL/6.5 mm) was tested for zone of inhibition against Staphylococcus aureus UC6685 (21H -, H: Hazy zone).
The test system of experiment [22] is Clostridium perfringens. Description: The compound (1 mg/mL, 80 microL/12.7 mm) was tested for zone of inhibition against Clostridium perfringens UC6509 (33H -, H: Hazy zone).
Experiment [23] relates to Staphylococcus aureus. Description: The compound (1 mg/mL, 80 microL/12.7 mm) was tested for zone of inhibition against Staphylococcus aureus UC3665 (18H -, H: Hazy zone).

≈ marks a conversion by molar mass, not a printed value.

Regarding `CCCCCC(=O)N1C[C@H]([C@H](C)CF)C1=O`, the Diameter of inhibition zone in experiment [1] is 31 mm; in the experiment on Staphylococcus aureus [2], 48 mm; in the experiment with Staphylococcus aureus [3], 38 mm; in the experiment on Clostridium perfringens [4] it was 79 mm.
Usually MIC stands for the smallest concentration in the dilution series that meets the test's criterion for growth inhibition. Take `CC(=O)OC[C@@H](C)[C@H]1CN(C(C)=O)C1=O`: the MIC with Cutibacterium acnes is more than 256 µg/mL; in the experiment on Fusobacterium nucleatum, 128 µg/mL (≈ 600 µM); against Streptococcus pyogenes, more than 512 µg/mL; with Bacteroides fragilis [5] it was 256 µg/mL (≈ 1200 µM); in [7], 128 µg/mL (≈ 600 µM); in experiment [10], 128 µg/mL (≈ 600 µM). For the same molecule, the MIC in the experiment with Clostridium perfringens [11] is more than 256 µg/mL; in experiment [12] it was more than 256 µg/mL; in experiment [13] it was more than 256 µg/mL; against Escherichia coli, more than 512 µg/mL. The Diameter of inhibition zone in experiment [6] came to 0 mm; in the experiment with Staphylococcus aureus [2] it was 0 mm; with Bacteroides fragilis [8] it was 52 mm; in the experiment with Staphylococcus aureus [9] it was 0 mm; in the experiment on Clostridium perfringens [4] it was 36 mm.
As for `COCCOC(=O)N1C/C(=C(\C)CN=[N+]=[N-])C1=O`, the Diameter of inhibition zone in experiment [14] stood at 14 mm; in the experiment on Staphylococcus aureus [2], 26 mm; in the experiment with Bacteroides fragilis [8] it was 0 mm; in the experiment with Clostridium perfringens [4], 20 mm; in the experiment on Staphylococcus aureus [15] it was 20 mm.
Consider `CC(=O)OC/C(C)=C1\CN(C(C)=O)C1=O`, for which the Diameter of inhibition zone was determined as 0 mm in experiment [1]; 22 mm in the experiment on Clostridium perfringens [16]; 0 mm in the experiment on Staphylococcus aureus [2]; 22 mm in the experiment on Bacteroides fragilis [8]; 0 mm with Staphylococcus aureus [9].
Turning to `CCCC(=O)OC/C(C)=C1\CN(C(=O)CCC)C1=O`, the Diameter of inhibition zone in the experiment on Clostridium perfringens [17] turned out to be 30 mm; in experiment [1], 0 mm; in the experiment with Staphylococcus aureus [2] it was 0 mm; in the experiment on Bacteroides fragilis [8], 25 mm; with Staphylococcus aureus [9], 0 mm.
Consider `CCCC(=O)OC[C@@H](C)[C@H]1CN(C(=O)CCC)C1=O`, for which the MIC is 8 µg/mL (≈ 29.7 µM) in the experiment with Cutibacterium acnes; 64 µg/mL (≈ 238 µM) in the experiment with Fusobacterium nucleatum; more than 160 µg/mL in the experiment on Streptococcus pyogenes; 32 µg/mL (≈ 119 µM) in [18]; 8 µg/mL (≈ 29.7 µM) in experiment [7]; 64 µg/mL (≈ 238 µM) against Bacteroides fragilis [20]. Moreover, the MIC was 128 µg/mL (≈ 475 µM) against Clostridium perfringens [11], 256 µg/mL (≈ 950 µM) in [12], 128 µg/mL (≈ 475 µM) in experiment [13] and more than 160 µg/mL in the experiment on Escherichia coli. Also, the Diameter of inhibition zone was 20 mm in [19], 28 mm with Staphylococcus aureus [2], 21 mm with Staphylococcus aureus [21] and 63 mm with Clostridium perfringens [4].
On to `CCCC(=O)OC[C@@H](C)[C@H]1CN(C(=O)c2ccccc2)C1=O`, for which the Diameter of inhibition zone in experiment [1] is 0 mm; in the experiment with Clostridium perfringens [22], 33 mm; with Bacteroides fragilis [8] it was 24 mm; in the experiment with Staphylococcus aureus [9], 0 mm; with Staphylococcus aureus [23], 18 mm.

Values taken from ChEMBL document CHEMBL1150488 (1993).
